# Structures can show the parent of a compound that is named as a salt.
# Tests used:
# [1] = biological target: T1, human prostanoid EP1 receptor (Homo sapiens, UniProt P34995); assay: Binding assay for the human prostanoid EP1 receptor (competition with [3H]-PGE2); details: negative logarithm10 of the IC50; competition with [3H]-PGE2, CHO-K1 cell membranes; averages of a number of experiments; read-out: pIC50 value (converted)
# T1 construct: expressed in transfected cells; host or cells: CHO-K1 (membrane fraction)
# T1 sequence (P34995 1-402): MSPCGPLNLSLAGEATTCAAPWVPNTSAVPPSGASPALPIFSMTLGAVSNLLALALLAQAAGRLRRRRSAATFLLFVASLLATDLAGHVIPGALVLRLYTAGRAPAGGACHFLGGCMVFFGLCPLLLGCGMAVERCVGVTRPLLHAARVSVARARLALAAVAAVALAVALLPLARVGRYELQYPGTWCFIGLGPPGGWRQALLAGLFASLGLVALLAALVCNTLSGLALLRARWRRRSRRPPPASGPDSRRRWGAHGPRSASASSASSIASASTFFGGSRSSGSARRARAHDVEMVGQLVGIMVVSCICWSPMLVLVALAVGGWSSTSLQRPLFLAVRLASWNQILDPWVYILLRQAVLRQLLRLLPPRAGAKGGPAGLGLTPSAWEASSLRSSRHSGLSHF
# Experimental: Competition assay using [^3H]-PGE2.
# Compound potencies are determined using a radioligand binding assay. In this assay compound potencies are determined from their ability to compete with tritiated prostaglandin E2 ([^3H]-PGE2) for binding to the human EP1 receptor.
# This assay utilises Chinese hamster ovary-K1 (CHO-K1) cells into which a stable vector containing the EP1 cDNA has previously been transfected. Cells are cultured in suitable flasks containing culture medium such as DMEM:F-12 supplemented with 10% v/v foetal calf serum, 2 mM L-glutamine, 0.25 mg/ml geneticin, 10 μg/ml puromycin and 10 μM indomethacin.
# Cells are detached from the culture flasks by incubation in calcium and magnesium free phosphate buffered saline containing 1 mM disodium ethylenediaminetetraacetic acid (Na2EDTA) and 10 μM indomethacin for 5 min. The cells are isolated by centrifugation at 250×g for 5mins and suspended in an ice cold buffer such as 50 mM Tris, 1 mM Na2EDTA, 140 mM NaCl, 10 μM indomethacin (pH 7.4). The cells are homogenised using a Polytron tissue disrupter (2×10s burst at full setting), centrifuged at 48,000×g for 20mins and the pellet containing the membrane fraction is washed (optional) three times by suspension and centrifugation at 48,000×g for 20mins. The final membrane pellet is suspended in an assay buffer such as 10 mM 2-[N-morpholino]ethanesulphonic acid, 1 mM Na2EDTA, 10 mM MgCl2 (pH 6). Aliquots are frozen at −80° C. until required.
# For the binding assay the cell membranes, competing compounds and [^3H]-PGE2 (3 nM final assay concentration) are incubated in a final volume of 100 μl for 30 min at 30° C. All reagents are prepared in assay buffer. Reactions are terminated by rapid vacuum filtration over GF/B filters using a Brandell cell harvester. The filters are washed with ice cold assay buffer, dried and the radioactivity retained on the filters is measured by liquid scintillation counting in Packard TopCount scintillation counter.
# The data are analysed using non linear curve fitting techniques to determine the concentration of compound producing 50% inhibition of specific binding (IC50).
# [2] = biological target: T2, human EP1 receptor (Homo sapiens, UniProt P34995); assay: human EP1 calcium mobilisation assay; type: cell-based; details: negative logarithm10 of the antagonist dissociation constant; CHO-K1 cells, PGE2; free bases or sodium salts; averages of a number of experiments; read-out: functional pKi value (converted)
# T2 construct: expressed in transfected cells; host or cells: CHO-K1
# T2 sequence (P34995 1-402): T1 sequence (P34995 1-402)
Structure (SMILES),IC50 [1] [nM],Ki [2] [nM]
"Cc1cc(NC(=O)OC(C)(C)C)nn1Cc1cc(Br)ccc1OCc1ccc(F)cc1F [Example 6, 1,1-Dimethylethyl {1-[(5-bromo-2-{[(2,4-difluorophenyl)methyl]oxy}phenyl)methyl]-5-methyl-1H-pyrazol-3-yl}carbamate]",≤ 10,> 1000
"Cc1cc(NC(=O)OC(C)C)nn1Cc1cc(Br)ccc1OCc1ccc(Cl)cc1Cl [Example 9, 1-Methylethyl {1-[(5-bromo-2-{[(2,4-dichlorophenyl)methyl]oxy}phenyl)methyl]-5-methyl-1H-pyrazol-3-yl]carbamate]",≤ 10,> 1000
"Cc1cc(NC(=O)Cc2ccccc2)nn1Cc1cc(Cl)ccc1OCc1cc(F)c(F)cc1F [Example 126, N-{1-[(5-Chloro-2-{[(2,4,5-trifluorophenyl)methyl]oxy}phenyl)methyl]-5-methyl-1H-pyrazol-3-yl}-2-phenylacetamide]",≤ 10,> 1000
"Cc1cc(-c2nc3ncccc3[nH]2)nn1Cc1cc(Cl)ccc1OCC(C)C [Example 372, 2-[1-({5-Chloro-2-[(2-methylpropyl)oxy]phenyl}methyl)-5-methyl-1H-pyrazol-3-yl]-1H-imidazo[4,5-b]pyridine hydrochloride]",≤ 10,
"Cc1cc(-c2nc3ccncc3[nH]2)nn1Cc1cc(Cl)ccc1OCC(C)C [Example 373, 2-[1-({5-Chloro-2-[(2-methylpropyl)oxy]phenyl}methyl)-5-methyl-1H-pyrazol-3-yl]-1H-imidazo[4,5-c]pyridine hydrochloride]",≤ 10,
"Cc1cc(-c2nc3ccc(N4CCN(C)CC4)cc3[nH]2)nn1Cc1cc(Cl)ccc1OCC(C)C [Example 375, 2-[1-({5-Chloro-2-[(2-methylpropyl)oxy]phenyl}methyl)-5-methyl-1H-pyrazol-3-yl]-5-(4-methyl-1-piperazinyl)-1H-benzimidazole trihydrochloride]",≤ 10,
"Cc1cc(-c2nc3cc(CO)ccc3[nH]2)nn1Cc1cc(Cl)ccc1OCC(C)C [Example 377, {2-[1-({5-Chloro-2-[(2-methylpropyl)oxy]phenyl}methyl)-5-methyl-1H-pyrazol-3-yl]-1H-benzimidazol-5-yl}methanol hydrochloride]",≤ 10,
"Cc1c(-c2nc3cc(CN4CCN(C)CC4)ccc3[nH]2)cnn1Cc1cc(Cl)ccc1OCC(C)C [Example 381, 2-[1-({5-Chloro-2-[(2-methylpropyl)oxy]phenyl}meth-yl)-5-methyl-1H-pyrazol-4-yl]-5-[(4-methyl-1-piperazinyl)methyl]-1H-benzimidazole trihydrochloride]",≤ 10,
"CCN1CCN(Cc2ccc3[nH]c(-c4cnn(Cc5cc(Cl)ccc5OCC(C)C)c4C)nc3c2)CC1 [Example 382, 2-[1-({5-Chloro-2-[(2-methylpropyl)oxy]phenyl}meth-yl)-5-methyl-1H-pyrazol-4-yl]-5-[(4-ethyl-1-piperazinyl)methyl]-1H-benzimidazole trihydrochloride]",≤ 10,

# Further lines, results first:
IC50 [1] [nM],Ki [2] [nM],Structure (SMILES)
≤ 10,,"CNCc1ccc(NC(=O)c2cc(C)n(Cc3cc(Cl)ccc3OCC(C)C)n2)cc1 [Example 392, 1-({5-Chloro-2-[(2-methylpropyl)oxy]phenyl}methyl)-5-methyl-N-{4-[(methylamino)methyl]phenyl}-1H-pyrazole-3-carboxamide hydrochloride]"
≤ 10,,"CCNCc1ccc(NC(=O)c2cc(C)n(Cc3cc(Cl)ccc3OCC(C)C)n2)cc1 [Example 393, 1-({5-Chloro-2-[(2-methylpropyl}oxy]phenyl}methyl)-N-{4-[(ethylamino)methyl]phenyl}-5-methyl-1H-pyrazole-3-carboxamide hydrochloride]"
≤ 10,,"Cc1cc(C(=O)Nc2ccc(CN(C)C)cc2)nn1Cc1cc(Cl)ccc1OCC(C)C [Example 394, 1-({5-Chloro-2-[(2-methylpropyl)oxy]phenyl}methyl)-N-{4-[(dimethylamino)methyl]phenyl}-5-methyl-1H-pyrazole-3-carboxamide hydrochloride]"
≤ 10,,"Cc1cc(C(=O)Nc2ccc(CNC(C)C)cc2)nn1Cc1cc(Cl)ccc1OCC(C)C [Example 395, 1-({5-Chloro-2-[(2-methylpropyl)oxy]phenyl}methyl)-5-methyl-N-(4-{[(1-methylethyl)amino]methyl}phenyl)-1H-pyrazole-3-carboxamide hydrochloride]"
≤ 10,,"Cc1cc(C(=O)Nc2ccc(CN3CCCC3)cc2)nn1Cc1cc(Cl)ccc1OCC(C)C [Example 396, 1-({5-Chloro-2-[(2-methylpropyl)oxy]phenyl}methyl)-5-methyl-N-[4-(1-pyrrolidinylmethyl)phenyl]-1H-pyrazole-3-carboxamide hydrochloride]"
≤ 10,,"Cc1cc(C(=O)Nc2ccc(CN3CCCCC3)cc2)nn1Cc1cc(Cl)ccc1OCC(C)C [Example 397, 1-({5-Chloro-2-[(2-methylpropyl)oxy]phenyl}methyl)-5-methyl-N-[4-(1-piperidinylmethyl)phenyl]-1H-pyrazole-3-carboxamide hydrochloride]"
≤ 10,,"Cc1cc(C(=O)Nc2ccc(CN3CCOCC3)cc2)nn1Cc1cc(Cl)ccc1OCC(C)C [Example 398, 1-({5-Chloro-2-[(2-methylpropyl)oxy]phenyl}methyl)-5-methyl-N-[4-(4-morpholinylmethyl)phenyl]-1H-pyrazole-3-carboxamide hydrochloride]"
≤ 10,,"Cc1cc(C(=O)Nc2ccc(CN3CCNC(=O)C3)cc2)nn1Cc1cc(Cl)ccc1OCC(C)C [Example 399, 1-({5-Chloro-2-[(2-methylpropyl)oxy]phenyl}methyl)-5-methyl-N-{4-[(3-oxo-1-piperazinyl)methyl]phenyl}-1H-pyrazole-3-carboxamide hydrochloride]"
≤ 10,,"Cc1cc(-c2nc3ccc(N(C)C)cc3[nH]2)nn1Cc1cc(Cl)ccc1OCC(C)C [Example 473, 2-[1-({5-Chloro-2-[(2-methylpropyl)oxy]phenyl}methyl)-5-methyl-1H-pyrazol-3-yl]-N,N-dimethyl-1H-benzimidazol-5-amine dihydrochloride]"
